Experimental data as given in patent US20260262647A1, “Synergistic Compositions Containing Guanidine” (Thor GmbH, priority 2023, published 2026).

Columns and labels:
Assay type in all cases: cell-based
[1] = system: Pseudomonas spec. DSM 115322; test: Minimum inhibitory concentrations and synergy index in Müller-Hinton broth
Protocol: (§1) Test organisms used were Gram-negative bacterial species from the group of pseudomonads, Pseudomonas putida DSM 115323 and Pseudomonas spec. DSM 115322. For this purpose, mixtures with different concentrations of the respective active substances were prepared and tested for their effect on the pseudomonads. The test was run in Müller-Hinton broth MHB with a cell density of 10^6 microbes per ml. When organic acids are used as a combination partner with the guanidine, MHB was adjusted to pH 5.5.
(§2) The incubation was run in microplates at 30° C. for 48 hours. After 48 hours, the batches were evaluated for turbidity resulting from growth, and optical density was additionally determined photometrically. In this way, the minimum inhibitory concentrations (MICs) of the two actives were determined individually and in combination.
(§3) The calculation was done according to the standard method of F. C. Kull et al., Applied Microbiology, vol. 9 (1961), p. 538.
(§4) This involves calculating the synergy index (SI) by the following formula:
(§5) [formula] • Qa=concentration of component A in the A+B mixture • QA=concentration of component A as the sole biocide • Qb=concentration of component B in the A+B mixture • QB=concentration of component B as the sole biocide
(§6) If the synergy index is greater than 1, this means that there is antagonism. If the synergy index assumes the value 1, this means that the effect of the two biocides/compounds is additive. If the synergy index assumes a value of less than 1, this means that there is synergism between the two biocides/compounds.

yeast mixture [2] = test: Laundry detergent inoculated once with yeast mixture, semiquantitative growth evaluation; design: key: 0: No growth; Minimal growth, 1 to 10 colonies visible over the entire streak; 2: Light growth, maximum 100 colonies; Moderate growth, maximum 300 to 400 colonies; Uniform growth, >400 colonies, single colonies still clearly recognizable; 5: Heavy growth, too many colonies to count, but no growth over the entire streak; 6: Full growth, barely any single colonies still apparent, growth over the entire streak; details: Example 37, laundry detergent, +100 ppm BIT
Description: (§7) In examples 35 to 38 below, synergistic interaction between guanidine and antimicrobial substances with respect to microbial infestation was studied using an emulsion paint and a laundry detergent or cleaning composition by adding particular amounts of guanidine salts and isothiazolinones and examining their stability against microbial infestation: […] The laundry detergent was a heavy-duty laundry detergent without preservatives (pH 8.1), and the cleaning composition was an all-purpose detergent without preservatives (pH 7.6), each likewise made in the laboratory, without addition of the otherwise usual conventional preservatives. To each paint was added—individually and in combination—particular concentrations of guanidinium hydrochloride, benzisothiazolinone (BIT), and a mixture of chloromethylisothiazolinone (CIT) and methylisothiazolinone (MIT). The laundry detergent and the cleaning composition were admixed with particular concentrations of guanidinium hydrochloride and benzisothiazolinone (BIT). The resultant batches of the paint thus prepared were inoculated with a mixture of different bacteria species (bacteria mixture B); the batches of the laundry detergent and cleaning compositions thus prepared were inoculated with a yeast mixture. • Pichia manshurica DSM 12249 • Rhodotorula mucilaginosa DSM 12248 • Candida boidinii DSM 13622 • Candida albicans DSM 1386 […] Further steps for establishment of a cell count of the inoculum suspension of 10^8/ml were effected analogously to the production of the bacteria suspension. […] The streaked agar plates were then incubated at 30° C. for 48 hours (bacteria) or at 25° C. for 72 hours (yeasts). After incubation, the bacterial or yeast colonies that have grown on the agar plates were visually evaluated and quantified according to the following scheme: [table]

yeast mixture [3] = test: All-purpose detergent inoculated once with yeast mixture, semiquantitative growth evaluation; design: key: 0: No growth; Minimal growth, 1 to 10 colonies visible over the entire streak; 2: Light growth, maximum 100 colonies; Moderate growth, maximum 300 to 400 colonies; Uniform growth, >400 colonies, single colonies still clearly recognizable; 5: Heavy growth, too many colonies to count, but no growth over the entire streak; 6: Full growth, barely any single colonies still apparent, growth over the entire streak; details: Example 38, all-purpose detergent, +100 ppm BIT
Description: as §7

bacteria mixture B = test: Emulsion paint inoculated once with bacteria mixture B, semiquantitative growth evaluation; design: key: 0: No growth; Minimal growth, 1 to 10 colonies visible over the entire streak; 2: Light growth, maximum 100 colonies; Moderate growth, maximum 300 to 400 colonies; Uniform growth, >400 colonies, single colonies still clearly recognizable; 5: Heavy growth, too many colonies to count, but no growth over the entire streak; 6: Full growth, barely any single colonies still apparent, growth over the entire streak; details: Example 35, emulsion paint, +500 ppm BIT
Description: In examples 35 to 38 below, synergistic interaction between guanidine and antimicrobial substances with respect to microbial infestation was studied using an emulsion paint and a laundry detergent or cleaning composition by adding particular amounts of guanidine salts and isothiazolinones and examining their stability against microbial infestation: […] The laundry detergent was a heavy-duty laundry detergent without preservatives (pH 8.1), and the cleaning composition was an all-purpose detergent without preservatives (pH 7.6), each likewise made in the laboratory, without addition of the otherwise usual conventional preservatives. To each paint was added—individually and in combination—particular concentrations of guanidinium hydrochloride, benzisothiazolinone (BIT), and a mixture of chloromethylisothiazolinone (CIT) and methylisothiazolinone (MIT). The laundry detergent and the cleaning composition were admixed with particular concentrations of guanidinium hydrochloride and benzisothiazolinone (BIT). The resultant batches of the paint thus prepared were inoculated with a mixture of different bacteria species (bacteria mixture B); the batches of the laundry detergent and cleaning compositions thus prepared were inoculated with a yeast mixture. • Pseudomonas spp. (Pseudomonas oleovorans group) DSM 33933 • Pseudomonas aeruginosa DSM 33935 • Pseudomonas oleovorans DSM 33936 • Pseudomonas spec. DSM 33937 • Pseudomonas aeruginosa DSM 33938 […] The cell suspension of the bacteria mixture was produced by growing the individual bacteria at 30° C. for 24 h in liquid culture on a shaker. The growth medium used for the bacteria was Müller-Hinton liquid medium. After growing, the individual liquid cultures were centrifuged, and the cells were resuspended in physiological saline solution. […] The cell count of the inoculum was determined in each case by chamber counting. […] The streaked agar plates were then incubated at 30° C. for 48 hours (bacteria) or at 25° C. for 72 hours (yeasts). After incubation, the bacterial or yeast colonies that have grown on the agar plates were visually evaluated and quantified according to the following scheme: [table]

[4] = system: Pseudomonas putida DSM 115323; test: Minimum inhibitory concentrations and synergy index in Müller-Hinton broth
Protocol: as §1, §2, §3, §4, §5, §6

SMILES	QB: Concentration of BIT as the sole agent that shows an endpoint ([1]; BIT alone, 48 hours at 30° C.)	Synergy index Qa/QA + Qb/QB ([1]; guanidine and BIT, Qa, Qb)	Bacterial growth (yeast mixture [2]; Day 1)	Bacterial growth (yeast mixture [2]; Day 3)	Yeast growth (yeast mixture [3]; Day 1)	Yeast growth (yeast mixture [3]; Day 3)	Bacterial growth (bacteria mixture B; Day 1)	Bacterial growth (bacteria mixture B; Day 6)	QB: Concentration of CIT as the sole agent that shows an endpoint ([4]; CIT alone, 48 hours at 30° C.)	Synergy index Qa/QA + Qb/QB ([4]; guanidine and CIT, Qa, Qb)
O=c1[nH]sc2ccccc12 [BIT, 1,2-benzisothiazolin-3-one]	300 ppm	1.00	6	4 (Uniform growth, >400 colonies, single colonies still clearly recognizable)	6	4 (Uniform growth, >400 colonies, single colonies still clearly recognizable)	6	6	–	–
Cn1sc(Cl)cc1=O [CIT, 5-chloro-2-methyl-4-isothiazolin-3-one]	–	–	–	–	–	–	–	–	3.0 ppm	1.00
